This assay deals with Coagulation Factor XIa protease (Homo sapiens (Human), UniProt P03951). Nature of the assay: Inhibition of Factor XIa detected by absorption photometry. As to conditions: absorbance at 405 nm, 10 minutes at 37° C. It counts as biochemical. As for the experimental part: Test Example 1: Biological Activity of the Compounds of the Present Invention on
The Inhibition of Factor XIa Detected by Absorption Photometry
1. Experimental Materials
Enzyme: Coagulation Factor XIa protease (Abcam, Art. No ab62411)
Substrate: Coagulation Factor XIa specific substrate (HYPHEN1310 med, Art. No. Biophen cs-21(66))
2. Experimental Procedure
20 mM of test compound dissolved in 100% DMSO was diluted to 200, 20, 2, 0.2, 0.02, 0.002 μM with 100% DMSO; 1 μl of the compound was added to each well in a 384-well plate, blank and control wells were replaced with DMSO. The plate was centrifuged to remove the compound to the bottom. 10 μl (2.5 μg/ml) of FXIa enzyme solution was added to each well, and 10 μl of buffer was added to the blank well. The plate was centrifuged to remove the enzyme solution to the bottom.
Finally, 10 μl of 2 mM substrate were added to each well, and the plate was centrifuged to remove the substrate solution to the bottom.
The plate was incubated for 10 minutes at 37° C.; and then the absorbance was measured at 405 nm.

Each structure is given as a SMILES string.

Chain of Coagulation Factor XIa protease (P03951 388-625): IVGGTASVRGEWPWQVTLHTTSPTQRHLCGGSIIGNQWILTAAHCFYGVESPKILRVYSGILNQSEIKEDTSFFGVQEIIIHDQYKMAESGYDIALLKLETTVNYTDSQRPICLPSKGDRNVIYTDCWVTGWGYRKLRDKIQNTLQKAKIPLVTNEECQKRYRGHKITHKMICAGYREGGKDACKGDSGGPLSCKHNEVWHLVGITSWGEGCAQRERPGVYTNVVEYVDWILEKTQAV
Chain of Coagulation Factor XIa protease (P03951 19-387 partner): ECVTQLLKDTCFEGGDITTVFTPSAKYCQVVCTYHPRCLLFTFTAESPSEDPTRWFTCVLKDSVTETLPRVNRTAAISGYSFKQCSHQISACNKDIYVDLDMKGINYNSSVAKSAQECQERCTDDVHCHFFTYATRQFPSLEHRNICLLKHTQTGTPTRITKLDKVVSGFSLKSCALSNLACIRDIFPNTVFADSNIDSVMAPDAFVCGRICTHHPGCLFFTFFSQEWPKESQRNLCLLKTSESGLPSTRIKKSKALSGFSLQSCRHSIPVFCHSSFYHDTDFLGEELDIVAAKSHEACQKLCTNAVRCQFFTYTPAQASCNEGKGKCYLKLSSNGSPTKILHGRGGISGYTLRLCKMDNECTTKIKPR

Usually IC50 stands for the midpoint of a concentration-inhibition curve. A lower IC50 goes with greater potency. The compound `COc1cn(C(Cc2ccccc2)C(=O)Nc2ccc3ncncc3c2)c(=O)cc1-c1cc(Cl)ccc1C(C)=O` (centres unmarked) [Example 40, 2-(4-(2-acetyl-5-chlorophenyl)-5-methoxy-2-oxopyridin-1(2H)-yl)-3-phenyl-N-(quinazolin-6-yl)propanamide] registered an IC50 of 38 nM.

`COc1cn(C(CC2CC(C)(C)C2)C(=O)Nc2ccc(C(=O)O)cc2)c(=O)cc1-c1cc(Cl)ccc1C(C)=O` (centres unmarked) [Example 173, 4-(2-(4-(2-acetyl-5-chlorophenyl)-5-methoxy-2-oxopyridin-1(2H)-yl)-3-(3,3-dimethylcyclobutyl)propanamido)benzoic acid]: the IC50 came out at 100 nM.

`CCCCC(C(=O)Nc1ccc(C(=O)O)cc1)n1cc(OC)c(-c2cc(Cl)ccc2C(C)=O)cc1=O` (centres unmarked) [Example 155, 4-(2-(4-(2-acetyl-5-chlorophenyl)-5-methoxy-2-oxopyridin-1(2H)-yl)hexanamido)benzoic acid] registered an IC50 of 81 nM.

`COc1cn(C(Cc2ccc(F)cc2)C(=O)Nc2ccc(C(=O)O)cc2)c(=O)cc1-c1cc(Cl)ccc1C(C)=O` (centres unmarked) [Example 63, 4-(2-(4-(2-acetyl-5-chlorophenyl)-5-methoxy-2-oxopyridin-1(2H)-yl)-3-(4-fluorophenyl)propanamido)benzoic acid] showed an IC50 of 55 nM.

`CCC(=O)c1ccc(Cl)cc1-c1cc(=O)n(C(CCOC(C)(C)C)C(=O)Nc2ccc3nn(C)cc3c2)cc1OC` (centres unmarked) [Example 141] gave an IC50 of 66 nM.

`CCC(=O)c1ccc(Cl)cc1-c1cc(=O)n(C(CCOC(C)(C)C)C(=O)Nc2ccc3nc(C)c(C)nc3c2)cc1OC` (centres unmarked) [Example 124, 4-(tert-butoxy)-2-(4-(5-chloro-2-propionylphenyl)-5-methoxy-2-oxopyridin-(2H)-yl)-N-(2,3-dimethylquinoxalin-6-yl)butanamide] showed a half-inhibitory concentration (IC50) of 100 nM.

`COc1cn(C(Cc2ccncc2)C(=O)Nc2ccc(C(=O)O)cc2)c(=O)cc1-c1cc(Cl)ccc1C(C)=O` (centres unmarked) [Example 86, 4-(2-(4-(2-acetyl-5-chlorophenyl)-5-methoxy-2-oxopyridin-1(2H)-yl)-3-(pyridin-4-yl)propanamido)benzoic acid] returned an IC50 of 99 nM.

`COc1cn(C(Cc2ccccn2)C(=O)Nc2ccc(C(=O)O)cc2)c(=O)cc1-c1cc(Cl)ccc1C(C)=O` (centres unmarked) [Example 79, 4-(2-(4-(2-acetyl-5-chlorophenyl)-5-methoxy-2-oxopyridin-1(2H)-yl)-3-(pyridin-2-yl)propanamido)benzoic acid] came in with an IC50 of 45 nM.

As to `COc1cn(C(CC2(C)CC2)C(=O)Nc2ccc(C(=O)O)cc2)c(=O)cc1-c1cc(Cl)ccc1C(C)=O` (centres unmarked) [Example 158, 4-(2-(4-(2-acetyl-5-chlorophenyl)-5-methoxy-2-oxopyridin-1(2H)-yl)-3-(1-methylcyclopropyl)propanamido)benzoic acid], half-maximal inhibition (IC50) required 46 nM.

On to `CCC(=O)c1ccc(Cl)cc1-c1cc(=O)n(C(Cc2ccccc2)C(=O)Nc2ccc(C(N)=O)cc2)cc1OC` (centres unmarked) [Example 24, 4-(2-(4-(5-chloro-2-propionylphenyl)-5-methoxy-2-oxopyridin-1(2H)-yl)-3-phenylpropanamido)benzamide], for which the IC50 worked out at 36 nM.

On to `COc1cn(C(Cc2c(Cl)cccc2Cl)C(=O)Nc2ccc(C(=O)O)cc2)c(=O)cc1-c1cc(Cl)ccc1C(C)=O` (centres unmarked) [Example 76, 4-(2-(4-(2-acetyl-5-chlorophenyl)-5-methoxy-2-oxopyridin-1(2H)-yl)-3-(2,6-dichlorophenyl)propanamido)benzoic acid], for which the IC50 turned out to be 100 nM.

`COc1cn([C@H](CC2CCC2)C(=O)Nc2ccc(C(=O)O)cc2)c(=O)cc1-c1cc(Cl)ccc1C(C)=O` [Example 172, (R)-4-(2-(4-(2-acetyl-5-chlorophenyl)-5-methoxy-2-oxopyridin-1(2H)-yl)-3-cyclobutylpropanamido)benzoic acid] returned an IC50 of 8920 nM.

The compound `COc1cn(C(Cc2ccccc2C#N)C(=O)Nc2ccc(C(=O)O)cc2)c(=O)cc1-c1cc(Cl)ccc1C(C)=O` (centres unmarked) [Example 87, 4-(2-(4-(2-acetyl-5-chlorophenyl)-5-methoxy-2-oxopyridin-1(2H)-yl)-3-(2-cyanophenyl)propanamido)benzoic acid] yielded an IC50 of 73 nM.

On to `COCCC(C(=O)Nc1ccc(C(=O)O)cc1)n1cc(OC)c(-c2c(C(C)=O)ccc(Cl)c2F)cc1=O` (centres unmarked) [Example 146, 4-(2-(4-(6-acetyl-3-chloro-2-fluorophenyl)-5-methoxy-2-oxopyridin-1(21)-yl)-4-methoxvbutanamido)benzoic acid], for which the midpoint of inhibition, the IC50, lay at 37 nM.

`COc1cn(C(Cc2ccc(C)cc2)C(=O)Nc2ccc(C(=O)O)cc2)c(=O)cc1-c1cc(Cl)ccc1C(C)=O` (centres unmarked) [Example 74, 4-(2-(4-(2-acetyl-5-chlorophenyl)-5-methoxy-2-oxopyridin-1(2H)-yl)-3-(p-tolyl)propanamido)benzoic acid] registered a half-inhibitory concentration (IC50) of 100 nM.

On to `CNC(=O)c1ccc(NC(=O)[C@H](CCOC(C)(C)C)n2cc(OC)c(-c3cc(Cl)ccc3C(C)=O)cc2=O)cc1` [Example 123, (S)-4-(2-(4-(2-acetyl-5-chlorophenyl)-5-methoxy-2-oxopyridin-1(2H)-yl)-4-(tert-butoxy)butanamido)-N-methylbenzamide], for which half-maximal inhibition (IC50) was put at 100 nM.

Consider `CCC(=O)c1ccc(Cl)cc1-c1cc(=O)n(C(CCOC(C)(C)C)C(=O)Nc2ccc3[nH]c(C(=O)O)cc3c2)cc1OC` (centres unmarked) [Example 119, 5-(4-(tert-butoxy)-2-(4-(5-chloro-2-propionylphenyl)-5-methoxy-2-oxopyridin-1(2H)-yl)butanamido)-1H-indole-2-carboxylic acid], for which it took 45 nM to reach half-maximal inhibition (IC50).

`CCC(=O)c1ccc(Cl)cc1-c1cc(=O)n([C@@H](Cc2ccccc2)C(=O)Nc2ccc(C(N)=O)cc2)cc1OC` [Example 26, (S)-4-(2-(4-(5-chloro-2-propionylphenyl)-5-methoxy-2-oxopyridin-1(2H)-yl)-3-phenylpropanamido)benzamide] gave an IC50 of 21 nM.

Compound `CCC(=O)c1ccc(Cl)cc1-c1cc(=O)n(C(Cc2ccccc2)C(=O)Nc2ccc3[nH]cnc3c2)cc1OC` (centres unmarked) [Example 38, N-(1H-benzo[d]imidazol-5-yl)-2-(4-(5-chloro-2-propionylphenyl)-5-methoxy-2-oxopyridin-1(2H)-yl)-3-phenylpropanamide] returned an IC50 of 30 nM.

Turning to `COc1cn(C(Cc2ccccc2)C(=O)Nc2ccc3cn[nH]c3c2)c(=O)cc1-c1cc(Cl)ccc1C(C)=O` (centres unmarked) [Example 42, 2-(4-(2-acetyl-5-chlorophenyl)-5-methoxy-2-oxopyridin-1 (2H)-yl)-N-(1H-indazol-6-yl)-3-phenylpropanamide], the IC50 turned out to be 40 nM.

Compound `COc1cn([C@@H](CC2CC2)C(=O)Nc2ccc(C(=O)O)cc2)c(=O)cc1-c1cc(Cl)ccc1C(C)=O` [Example 168, (S)-4-(2-(4-(2-acetyl-5-chlorophenyl)-5-methoxy-2-oxopyridin-1(2H)-yl)-3-cyclopropylpropanamido)benzoic acid] came in with a concentration for half-maximal inhibition (IC50) of 43 nM.

With `COc1cn(C(Cc2cccc(C)c2)C(=O)Nc2ccc(C(=O)O)cc2)c(=O)cc1-c1cc(Cl)ccc1C(C)=O` (centres unmarked) [Example 67, 4-(2-(4-(2-acetyl-5-chlorophenyl)-5-methoxy-2-oxopyridin-1(2H)-yl)-3-(m-tolyl)propan amido)benzoic acid], half-maximal inhibition (IC50) was put at 35 nM.

Compound `COCCC(C(=O)Nc1ccc(C(=O)O)cc1)n1cc(OC)c(-c2cc(Cl)ccc2C(C)=O)cc1=O` (centres unmarked) [Example 147, 4-(2-(4-(2-acetyl-5-chlorophenyl)-5-methoxy-2-oxopyridin-1(2H)-yl)-4-methoxybutanamido)benzoic acid] gave an IC50 of 56 nM.

`COc1cn(C(Cc2ccccc2)C(=O)Nc2ccc3cnccc3c2)c(=O)cc1-c1cc(Cl)ccc1C(C)=O` (centres unmarked) [Example 46, 2-(4-(2-acetyl-5-chlorophenyl)-5-methoxy-2-oxopyridin-1 (2H)-yl)-N-(isoquinolin-6-yl)-3-phenylpropanamide]: half-maximal inhibition (IC50) required 71 nM.

In turn, `COc1cn(C(Cc2ccccc2)C(=O)Nc2ccc3[nH]cnc3c2)c(=O)cc1-c1cc(Cl)ccc1C(C)=O` (centres unmarked) [Example 47, 2-(4-(2-acetyl-5-chlorophenyl)-5-methoxy-2-oxopyridin-1 (2H)-yl)-N-(1H-benzo[d]imidazol-5-yl)-3-phenylpropanamide] showed an IC50 of 82 nM.

Consider `COc1cn(C(Cc2ccc(NC(=O)C3CC3)cc2)C(=O)Nc2ccc(C(=O)O)cc2)c(=O)cc1-c1cc(Cl)ccc1C(C)=O` (centres unmarked) [Example 16, 4-(2-(4-(2-acetyl-5-chlorophenyl)-5-methoxy-2-oxopyridin-1(2H)-yl)-3-(4-(cyclopropanecarboxamido)phenyl)propanamido)benzoic acid], for which the IC50 stood at 100 nM.

On to `COc1cn(C(Cc2ccc(C#N)cc2)C(=O)Nc2ccc(C(=O)O)cc2)c(=O)cc1-c1cc(Cl)ccc1C(C)=O` (centres unmarked) [Example 90, 4-(2-(4-(2-acetyl-5-chlorophenyl)-5-methoxy-2-oxopyridin-1(2H)-yl)-3-(4-cyanophenyl)propanamido)benzoic acid], for which the IC50 turned out to be 100 nM.

The compound `COc1cn(C(Cc2ccsc2)C(=O)Nc2ccc(C(=O)O)cc2)c(=O)cc1-c1cc(Cl)ccc1C(C)=O` (centres unmarked) [Example 7, 4-(2-(4-(2-acetyl-5-chlorophenyl)-5-methoxy-2-oxopyridin-1 (2H)-yl)-3-(thiophen-3-yl)propanamido)benzoic acid] registered an IC50 of 34 nM.

In turn, `COc1cn(C(Cc2ccc(Cl)cc2)C(=O)Nc2ccc(C(=O)O)cc2)c(=O)cc1-c1cc(Cl)ccc1C(C)=O` (centres unmarked) [Example 69, 4-(2-(4-(2-acetyl-5-chlorophenyl)-5-methoxy-2-oxopyridin-1 (2H)-yl)-3-(4-chlorophenyl)propanamido)benzoic acid] yielded an IC50 of 49 nM.

Values taken from patent publication US10633375B2, “Oxopicolinamide derivative, preparation method therefor and pharmaceutical use thereof” (Jiangsu Hengrui Medicine Co., Ltd., priority 2016, dated 2020).
